# Source: US7192958B2, “Sodium channel blockers” (Parion Sciences, Inc., priority 2002, dated 2007)
# Target: T1, airway epithelial sodium currents (epithelial Na+ channel, ENaC) in canine bronchial epithelia (Canis lupus familiaris, UniProt A0A8I3MKE6+A0A8I3Q679+Q95165)
# T1 construct: endogenous in cells; host or cells: primary canine bronchial epithelial cells cultured at air-liquid interface, mounted in Ussing chambers
# T1 sequence (A0A8I3Q679 1-649): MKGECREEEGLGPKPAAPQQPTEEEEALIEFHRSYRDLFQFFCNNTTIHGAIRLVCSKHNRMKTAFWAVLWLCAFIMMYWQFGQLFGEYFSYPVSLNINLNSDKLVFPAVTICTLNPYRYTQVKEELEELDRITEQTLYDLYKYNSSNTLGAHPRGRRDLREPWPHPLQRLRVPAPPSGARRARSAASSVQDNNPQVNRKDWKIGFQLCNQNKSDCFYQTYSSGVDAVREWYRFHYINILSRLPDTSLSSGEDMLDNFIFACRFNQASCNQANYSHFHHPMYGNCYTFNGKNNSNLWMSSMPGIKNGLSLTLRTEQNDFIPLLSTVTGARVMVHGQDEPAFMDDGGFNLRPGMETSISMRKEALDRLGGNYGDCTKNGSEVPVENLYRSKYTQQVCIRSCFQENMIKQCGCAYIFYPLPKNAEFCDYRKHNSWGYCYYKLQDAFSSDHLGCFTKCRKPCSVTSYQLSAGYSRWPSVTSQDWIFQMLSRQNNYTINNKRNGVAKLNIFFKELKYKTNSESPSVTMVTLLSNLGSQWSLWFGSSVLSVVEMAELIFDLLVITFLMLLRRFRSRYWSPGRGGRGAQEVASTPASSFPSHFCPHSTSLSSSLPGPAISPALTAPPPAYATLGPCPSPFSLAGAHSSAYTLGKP
# T1 sequence (Q95165 1-641): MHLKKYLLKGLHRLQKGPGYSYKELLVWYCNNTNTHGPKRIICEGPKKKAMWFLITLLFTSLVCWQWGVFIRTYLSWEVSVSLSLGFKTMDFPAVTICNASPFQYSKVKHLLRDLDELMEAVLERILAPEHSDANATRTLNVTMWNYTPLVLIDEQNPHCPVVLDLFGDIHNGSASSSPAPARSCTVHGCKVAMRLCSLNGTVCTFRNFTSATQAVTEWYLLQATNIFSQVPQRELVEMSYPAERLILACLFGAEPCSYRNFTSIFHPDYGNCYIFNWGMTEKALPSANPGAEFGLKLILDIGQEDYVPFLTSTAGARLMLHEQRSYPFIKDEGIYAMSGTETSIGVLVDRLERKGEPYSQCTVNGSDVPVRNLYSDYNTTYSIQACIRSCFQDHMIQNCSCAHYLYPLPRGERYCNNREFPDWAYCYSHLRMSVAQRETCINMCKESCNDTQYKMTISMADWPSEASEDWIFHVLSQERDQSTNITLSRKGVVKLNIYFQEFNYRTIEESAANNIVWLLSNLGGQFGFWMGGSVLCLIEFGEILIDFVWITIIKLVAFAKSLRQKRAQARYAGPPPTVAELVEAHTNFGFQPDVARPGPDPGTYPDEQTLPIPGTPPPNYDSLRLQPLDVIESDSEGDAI
# T1 sequence (A0A8I3MKE6 1-646): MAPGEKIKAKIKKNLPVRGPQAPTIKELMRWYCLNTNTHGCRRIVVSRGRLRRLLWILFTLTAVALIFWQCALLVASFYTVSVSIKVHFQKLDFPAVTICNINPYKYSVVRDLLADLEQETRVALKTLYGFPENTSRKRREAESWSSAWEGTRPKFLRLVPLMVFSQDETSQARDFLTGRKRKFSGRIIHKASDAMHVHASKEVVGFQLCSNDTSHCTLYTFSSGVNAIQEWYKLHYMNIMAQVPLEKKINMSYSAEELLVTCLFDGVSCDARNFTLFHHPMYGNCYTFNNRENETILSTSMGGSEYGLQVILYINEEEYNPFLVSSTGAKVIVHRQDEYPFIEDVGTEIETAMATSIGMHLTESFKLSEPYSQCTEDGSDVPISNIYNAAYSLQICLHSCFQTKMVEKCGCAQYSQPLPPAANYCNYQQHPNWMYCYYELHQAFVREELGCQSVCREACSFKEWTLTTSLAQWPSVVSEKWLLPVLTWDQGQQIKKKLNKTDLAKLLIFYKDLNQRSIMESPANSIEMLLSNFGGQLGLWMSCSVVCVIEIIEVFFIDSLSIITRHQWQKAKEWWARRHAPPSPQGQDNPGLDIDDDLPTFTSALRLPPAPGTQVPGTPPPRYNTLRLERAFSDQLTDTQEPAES
# Test: Sodium channel blocking activity: potency in canine bronchial epithelia, short circuit current (ISC) in Ussing chambers
# Type: cell-based
# Details: relative to amiloride as positive control
# Method: One assay used to assess mechanism of action and/or potency of the compounds of the present invention involves the determination of lumenal drug inhibition of airway epithelial sodium currents measured under short circuit current (ISC) using airway epithelial monolayers mounted in Ussing chambers. Cells obtained from freshly excised human, dog, sheep or rodent airways are seeded onto porous 0.4 micron Snapwell™ Inserts (CoStar), cultured at air-liquid interface (ALI) conditions in hormonally defined media, and assayed for sodium transport activity (ISC) while bathed in Krebs Bicarbonate Ringer (KBR) in Using chambers. All test drug additions are to the lumenal bath with half-log dose addition protocols (from 1×10^−11 M to 3×10^−5M), and the cumulative change in ISC (inhibition) recorded. All drugs are prepared in dimethyl sulfoxide as stock solutions at a concentration of […] and stored at −20° C. Eight preparations are typically run in parallel; two preparations per run incorporate amiloride and/or benzamil as positive controls. After the maximal concentration ([…]) is administered, the lumenal bath is exchanged three times with fresh drug-free KBR solution, and the resultant ISCmeasured after each wash for approximately 5 minutes in duration. Reversibility is defined as the percent return to the baseline value for sodium current after the third wash. All data from the voltage clamps are collected via a computer interface and analyzed off-line.
# Dose-effect relationships for all compounds are considered and analyzed by the Prism 3.0 program. IC50 values, maximal effective concentrations, and reversibility are calculated and compared to amiloride and benzamil as positive controls.
# Amiloride was also tested in this assay as a positive control. The results for the compounds of the present invention are reported as fold-enhancement values relative to amiloride.
row,Compound,Fold Enhancement Over Amiloride [fold]
1,"Cl.N=C(NCCCCc1ccc(O)cc1O)NC(=O)c1nc(Cl)c(N)nc1N [drawing 26 Position 2,4 R H, 4-(2,4-Dihydroxyphenyl)butylamidino-3,5-diamino-6-chloropyrazinecarboxamide hydrochloride]",14.9
2,"Cl.N=C(NCCCCc1ccc(O)c(O)c1)NC(=O)c1nc(Cl)c(N)nc1N [drawing 26 Position 3,4 R H, 4-(3,4-Dihydroxyphenyl)butylamidino-3,5-diamino-6-chloropyrazinecarboxamide hydrochloride]",15.1
3,"Cl.N=C(NCCCc1ccc(O)cc1)NC(=O)c1nc(Cl)c(N)nc1N [drawing 27 n 3 Position of R 4 R OH, 3-(4-Hydroxyphenyl)propylamidino-3,5-diamino-6-chloropyrazinecarboxamide hydrochloride]",5.2
4,"Cl.N=C(NCCCCc1ccc(O)cc1)NC(=O)c1nc(Cl)c(N)nc1N [drawing 27 n 4 Position of R 4 R OH, 4-(4-hydroxyphenyl)butylamidino-3,5-diamino-6-chloropyrazinecarboxamide hydrochloride]",50.3
5,"Cl.N=C(NCCCCCc1ccc(O)cc1)NC(=O)c1nc(Cl)c(N)nc1N [drawing 27 n 5 Position of R 4 R OH, 5-(4-Hydroxyphenyl)pentylamidino-3,5-diamino-6-chloropyrazinecarboxamide hydrochloride]",14
6,"Br.N=C(NCCCOc1ccc(O)cc1)NC(=O)c1nc(Cl)c(N)nc1N [drawing 29 a CH2 b O R H, 4-(4-Hydroxyphenyl)-4-oxabutylamidino-3,5-diamino-6-chloropyrazinecarboxamide hydrobromide]",16.1
